Assay results taken from ChEMBL document CHEMBL3045966, “Synthesis and Selective Bioactivity of New Pyrazolecarboxamide Derivatives” (J Pestic Sci, 1999).

Columns and labels:
[1] = Toxicity against Oryzias latipes (Japanese medaka) assessed as fish mortality at 0.05 ppm measured after 3 days; format: organism-based; details: in vivo
Tetranychus urticae [2] = experiment: Acaricidal activity against Tetranychus urticae (two-spotted spider mite) reared on kidney bean leaves followed by compound exposure through leaf dipping assessed as mite mortality at 300 ppm measured after 3 days; format: functional; details: foliar, 72 h
[3] = Toxicity against Oryzias latipes (Japanese medaka) assessed as fish mortality at 0.5 ppm measured after 3 days; format: organism-based; details: in vivo
Tetranychus urticae [4] = experiment: Acaricidal activity against Tetranychus urticae (two-spotted spider mite) reared on kidney bean leaves followed by compound exposure through leaf dipping assessed as mite mortality at 30 ppm measured after 3 days; format: functional; details: foliar, 72 h
Tetranychus urticae [5] = experiment: Acaricidal activity against Tetranychus urticae (two-spotted spider mite) reared on kidney bean leaves followed by compound exposure through leaf dipping assessed as mite mortality at 10 ppm measured after 3 days; format: functional; details: foliar, 72 h
Tetranychus urticae [6] = experiment: Acaricidal activity against Tetranychus urticae (two-spotted spider mite) reared on kidney bean leaves followed by compound exposure through leaf dipping assessed as mite mortality at 3 ppm measured after 3 days; format: functional; details: foliar, 72 h

Structure (SMILES) | mortality at 72 h, 0.05 ppm [1] [%] | mortality at 300 ppm (Tetranychus urticae [2]) [%] | mortality at 72 h, 0.5 ppm [3] [%] | mortality at 30 ppm (Tetranychus urticae [4]) [%] | mortality at 10 ppm (Tetranychus urticae [5]) [%] | mortality at 3 ppm (Tetranychus urticae [6]) [%]
CCOCCc1ccc(OCCN(C(C)=O)C(=O)c2cc(C3CC3)nn2C)c(C)c1 | 0 | 100 | 51 | 0 | – | –
CCOCCc1ccc(OCCN(C(C)=O)C(=O)c2cc(C(C)(C)C)nn2C)c(C)c1 | 0 | 100 | 1 | 100 | 80 | 0
CCOCCc1ccc(OCCN(C(=O)CC)C(=O)c2cc(C(C)(C)C)nn2C)c(C)c1 | 0 | 100 | 1 | 100 | 0 | 0
CCOCCc1ccc(OCCN(C(=O)c2cc(C(C)(C)C)nn2C)C(=O)C(C)C)c(C)c1 | 0 | 100 | 0 | 100 | 100 | 0
CCOCCc1ccc(OCCN(C(=O)c2cc(C(C)(C)C)nn2C)C(=O)C2CC2)c(C)c1 | 0 | 100 | 0 | 100 | 30 | 0
CCOCCc1ccc(OCCN(C(=O)c2ccccc2)C(=O)c2cc(C(C)(C)C)nn2C)c(C)c1 | 0 | 100 | 0 | 100 | 0 | 0
CCOCCc1ccc(OCCNC(=O)c2cc(CC)nn2C)c(C)c1 | 51 | 100 | 100 | 30 | 0 | 0
CCCc1cc(C(=O)NCCOc2ccc(CCOCC)cc2C)n(C)n1 | 1 | 0 | 100 | 0 | 0 | 0
CCOCCc1ccc(OCCNC(=O)c2cc(C(C)(C)C)nn2C)c(C)c1 | 1 | 100 | 100 | 30 | 0 | 0
CCOCCc1ccc(OCCNC(=O)c2c(Cl)c(C)nn2C)c(C)c1 | 100 | 100 | 100 | 100 | 100 | 0
CCOCCc1ccc(OCCNC(=O)c2c(Cl)c(CC)nn2C)c(C)c1 | 100 | 100 | 100 | 100 | 100 | 0
CCOCCc1ccc(OCCNC(=O)c2c(Cl)c(C(C)(C)C)nn2C)c(C)c1 | 0 | 30 | 0 | 30 | 30 | 0
CCOCCc1ccc(OCCN(C(C)=O)C(=O)c2c(Cl)cnn2C)c(C)c1 | 0 | 0 | 0 | 0 | – | –
CCOCCc1ccc(OCCN(C(C)=O)C(=O)c2c(Cl)c(C)nn2C)c(C)c1 | 1 | 100 | 100 | 100 | 80 | 30
CCOCCc1ccc(OCCN(C(C)=O)C(=O)c2c(Cl)c(CC)nn2C)c(C)c1 | 51 | 100 | 100 | 100 | 30 | 0
CCCc1nn(C)c(C(=O)N(CCOc2ccc(CCOCC)cc2C)C(C)=O)c1Cl | 0 | 0 | 100 | 0 | – | –
CCOCCc1ccc(OCCN(C(C)=O)C(=O)c2c(Cl)c(C(C)(C)C)nn2C)c(C)c1 | 0 | 80 | 0 | 0 | – | –
CCOCCc1ccc(OCCN(C(=O)CC)C(=O)c2c(Cl)c(C)nn2C)c(C)c1 | 0 | 100 | 100 | 100 | 100 | 0
CCCC(=O)N(CCOc1ccc(CCOCC)cc1C)C(=O)c1c(Cl)c(C)cn1C | 0 | 100 | 100 | 100 | 30 | 0
CCCCCC(=O)N(CCOc1ccc(CCOCC)cc1C)C(=O)c1c(Cl)c(C)nn1C | 1 | 100 | 100 | 100 | 80 | 30
CCCCCCCCCCC(=O)N(CCOc1ccc(CCOCC)cc1C)C(=O)c1c(Cl)c(C)nn1C | 0 | 100 | 51 | 100 | 0 | 0
CCOCCc1ccc(OCCN(C(C)=O)C(=O)c2cc(C)nn2C)c(C)c1 | 0 | 100 | 1 | 100 | 0 | 0
CCOCCc1ccc(OCCN(C(C)=O)C(=O)c2cc(CC)nn2C)c(C)c1 | 0 | 100 | 100 | 100 | 0 | 0
CCCc1cc(C(=O)N(CCOc2ccc(CCOCC)cc2C)C(C)=O)n(C)n1 | 0 | 100 | 51 | 30 | 0 | 0
CCOCCc1ccc(OCCN(C(C)=O)C(=O)c2cc(C(C)C)nn2C)c(C)c1 | 0 | 100 | 100 | 100 | 30 | 0
CCOCCc1ccc(OCCNC(=O)c2cc(C)nn2C)c(C)c1 | 0 | 30 | 0 | 0 | 0 | 0
